In US10179761B2, “Compounds, pharmaceutical composition and their use in treating neurodegenerative diseases” (UNIVERSITE DE LILLE 2 DROIT ET SANTE, priority 2014, dated 2019):
“And” between values parts separate entries of the source, which are not always exact repeats. Equal entries are not always repeated. Where two headings read alike, the source gives them in different places.

Tests used:
σ1 receptors [1] = biological target: T1, σ1 receptors (Homo sapiens (Human), UniProt Q99720); assay: σ1 binding assay, Jurkat cell membranes, [3H](+)-pentazocine; conditions: selectivity, Ki sigma 2 / Ki sigma 1
Description: (§1) The σ binding assays were performed according to Ganapathy et al. (Ganapathy, M. E.; Prasad, P. D.; Huang, W.; Seth, P.; Leibach, F. H.; Ganapathy, V. Molecular and ligand-binding characterization of the sigma-receptor in the Jurkat human T lymphocyte cell line. J. Pharmacol. Exp. Ther. 1999, 289, 251-260). […] The σ2 binding assay was performed by incubating Jurkat cell membranes ([…] protein per tube) with [^3H]-DTG (25 nM) in presence of (+)-pentazocine (1 μM) to saturate σ1 receptors, and a range of concentrations of tested compounds, at room temperature for 1 hour in 5 mM Tris/HCl buffer (pH=7.4). The final assay volume was 0.5 mL. Binding was terminated by rapid filtration through Wathman GF/B filters, which were then washed with 5×1 mL ice-cold NaCl solution and allowed to dry before bound radioactivity was measured using liquid scintillation counting. Nonspecific binding was determined, in both assays, under similar conditions, but in presence of 10 μM unlabeled haloperidol. Inhibition constants (Ki) were calculated from the IC50 values according to the method of Cheng and Prusoff (Cheng, Y.; Prusoff, W. H. Relationship between the inhibition constant (Ki) and the concentration of inhibitor which causes 50 percent inhibition (IC50) of an enzymatic reaction. Biochem Pharmacol. 1973, 22 (23), 3099-108): […]

σ2 receptors = σ2 receptors (Homo sapiens (Human), UniProt Q5BJF2); assay: σ2 binding assay, Jurkat cell membranes, [3H]-DTG in presence of (+)-pentazocine; conditions: read-out: Sigma 2 Ki
Description: as §1

σ1 receptors [2] = biological target: T1, σ1 receptors; assay: σ1 binding assay, Jurkat cell membranes, [3H](+)-pentazocine; conditions: hydrochloride salts; mean of 2 or 3 independent experiments; Ki from IC50 (Cheng-Prusoff); read-out: Sigma 1 Ki
Male Swiss mice [3] = assay: Dizocilpine-induced learning deficits: step-through passive avoidance test; type: in vivo; conditions: NE-100 3 mg/kg + dizocilpine 0.15 mg/kg i.p.
Description: (§2) The activity of compound 3.1.10 was evaluated on the prevention of the dizocilpine-induced learning deficits measured using two behavioral tests. The present experiment tested if its anti-amnesic activity could be blocked by pretreatment with the reference sigma-1 receptor antagonist NE-100.
(§3) • Sixty (60) mice were used. Behavioral testing started one week after the arrival of the animals in the AMYLGEN animal facility. • 5 treatment groups were designed and used as follows:
(§4) • Vehicle 1 was physiological saline for dizocilpine, DMSO 2% in water for compound 3.1.10 • Animals were used at day 1 in the Y-maze test and at days 2 and 3 in the passive avoidance test, with training at day 2 and retention at day 3. • Test compounds, compound 3.1.10 and/or NE-100 were administered 10 min before dizocilpine (at 0.15 mg/kg i.p.) or vehicle. • Dizocilpine or vehicle 1 was administered 20 min before the Y-maze test session on day 1. • Dizocilpine or vehicle 1 was administered 20 min before the passive avoidance training session on day 2. Drugs were not injected before the retention session on day 3. • The whole experiment program was performed in a single serie experiment. • Treatments were randomized. 2.1.2. Animals
(§5) Male Swiss mice, 6 weeks old and weighing 30-35 g, from JANVIER (Saint Berthevin, France), were housed in groups with access to food and water ad libitum, except during experiments. […]
The apparatus is a two-compartments (15×20×15 cm high) box with one illuminated with white polyvinylchloride walls and the other darkened with black polyvinylchloride walls and a grid floor. […] The step-through latency (the latency spent to enter the dark compartment) and the number of vocalizations was recorded. […] The step-through latency was recorded up to 300 s. When the mouse entered the dark compartment or 300 s has elapsed (they were therefore manually placed in it), the escape latency (latency to exit from the dark compartment) was recorded up to 300 s.
They were therefore analyzed using a Kruskal-Wallis non-parametric ANOVA (H value), followed by a Dunn's multiple comparison test.

Male Swiss mice [4] = assay: Dizocilpine-induced learning deficits: spontaneous alternation in the Y-maze; type: in vivo; conditions: NE-100 3 mg/kg + dizocilpine 0.15 mg/kg i.p.
Description: as §2, §3, §4
as §5, with “experiments. They were kept in a temperature and humidity controlled animal facility on a 12 h/12 h light:dark cycle (lights on at 7:00 am).” for “experiments.”
Animals were tested for spontaneous alternation performance in the Y-maze, an index of spatial working memory. […] The number of maximum alternations was therefore the total number of arm entries minus two and the percentage of alternation was calculated as: (actual alternations/maximum alternations)×100. […]
All values, except passive avoidance latencies, were expressed as mean±S.E.M. Statistical analyses were performed using two-way ANOVA (F value), with genotype and peptide treatment as independent factors, followed by a Dunn's post-hoc multiple comparison test.

[5] = hydrochloride salts, mean of 2 or 3 independent experiments, Ki from IC50 (Cheng-Prusoff)

T1 sequence (Q99720 whole entry): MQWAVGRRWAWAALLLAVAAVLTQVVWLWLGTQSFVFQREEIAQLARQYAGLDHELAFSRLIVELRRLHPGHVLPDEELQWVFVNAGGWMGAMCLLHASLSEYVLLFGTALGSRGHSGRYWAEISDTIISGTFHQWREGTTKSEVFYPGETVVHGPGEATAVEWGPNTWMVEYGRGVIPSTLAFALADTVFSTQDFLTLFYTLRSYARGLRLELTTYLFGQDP
σ2 receptors, sequence (Q5BJF2 whole entry): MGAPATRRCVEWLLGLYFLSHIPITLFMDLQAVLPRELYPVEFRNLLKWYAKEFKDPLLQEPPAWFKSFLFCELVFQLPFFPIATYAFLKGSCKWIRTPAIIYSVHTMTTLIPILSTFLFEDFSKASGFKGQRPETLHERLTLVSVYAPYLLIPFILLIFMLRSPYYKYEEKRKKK

SMILES: CN(CCCNC(=O)c1cc(Cl)cc(Cl)c1)Cc1ccccc1 [Compound 3.1.26, N-[3-(benzylmethylamino)propyl]-3,5-dichlorobenzamide]
- Ratio σ2/σ1 (σ1 receptors [1]): 2
- Ki (σ2 receptors; [5]): 48 nM
- Ki (σ1 receptors [2]): 23 nM

SMILES: CN(CCNC(=O)c1ccc(Cl)cc1)Cc1ccccc1 [Compound 3.1.9, N-[3-(2-(N-methylbenzyl)amino)ethyl]-4-chlorobenzamide]
- Ki (σ2 receptors; [5]): 850 nM

SMILES: CN(CCC(=O)NCc1ccc(C#N)cc1)Cc1ccccc1 [Compound 3.4c, N-(4-Cyanobenzyl)-3-(benzylmethylamino)propanamide]
- Ratio σ2/σ1 (σ1 receptors [1]): 321
- Ki (σ2 receptors): 1800 nM
- Ki (σ1 receptors [2]): 5.6 nM

SMILES: CN(CCNC(=O)c1ccc(C#N)cc1)Cc1ccccc1 [Compound 3.1.36, N-(2-(benzyl(methyl)amino)ethyl)-4-cyanobenzamide]
- Ki (σ2 receptors; [5]): 170 nM
- Ki (σ1 receptors [2]): 1.2 nM

SMILES: CN(CCC(=O)NCc1ccc(Cl)cc1Cl)Cc1ccccc1 [Compound 3.4d, N-(2,4-Dichlorobenzyl)-3-(benzylmethylamino)propanamide]
- Ratio σ2/σ1 (σ1 receptors [1]): 52
- Ki (σ2 receptors): 120 nM
- Ki (σ1 receptors [2]): 2.3 nM

SMILES: CN(CCCNC(=O)c1cccc(Br)c1)Cc1ccccc1 [Compound 3.1.21, N-[3-(benzylmethylamino)propyl]-3-bromobenzamide]
- Ratio σ2/σ1 (σ1 receptors [1]): 90
- Ki (σ2 receptors; [5]): 350 nM
- Ki (σ1 receptors [2]): 3.9 nM

SMILES: CN(CCCNC(=O)c1ccc(Cl)cc1)CCc1ccccc1 [Compound 3.1.12, N-[3-(N-methyl-2-phenylethylamino)propyl]-4-chlorobenzamide]
- Ratio σ2/σ1 (σ1 receptors [1]): 47
- Ki (σ2 receptors; [5]): 200 nM
- Ki (σ1 receptors [2]): 4.3 nM

SMILES: CN(CCNC(=O)c1ccc([N+](=O)[O-])cc1)Cc1ccccc1 [Compound 3.1.37, N-(2-(benzyl(methyl)amino)ethyl)-4-nitrobenzamide]
- Ki (σ2 receptors; [5]): 1400 nM
- Ki (σ1 receptors [2]): 3.6 nM

SMILES: CN(CCNC(=O)c1ccc(Cl)cc1Cl)Cc1ccccc1 [Compound 3.1.34, N-(2-(benzyl(methyl)amino)ethyl)-2,4-dichlorobenzamide]
- Ratio σ2/σ1 (σ1 receptors [1]): 17
- Ki (σ2 receptors; [5]): 110 nM
- Ki (σ1 receptors [2]): 6.5 nM

SMILES: CCCN(CCC)CCc1ccc(OC)c(OCCc2ccccc2)c1.Cl [NE-100, reference compound]
- effect of NE-100 by itself on dizocilpine-induced deficits, passive avoidance test (Male Swiss mice [3]): devoid of effect by itself
- effect of NE-100 by itself on dizocilpine-induced deficits, Y-maze test (Male Swiss mice [4]): devoid of effect by itself

SMILES: CN(CCCNC(=O)c1ccc(Br)cc1F)Cc1ccccc1 [Compound 3.1.27, N-[3-(benzylmethylamino)propyl]-4-bromo-2-fluorobenzamide]
- Ki (σ1 receptors [2]): 2.9 nM

SMILES: O=C(NCCCNCN1Cc2ccccc2C1)c1ccc(Cl)cc1 [Compound 3.1.15]
- Ki (σ1 receptors [2]): 19 nM

SMILES: CN(CCC(=O)NCc1cccc(Cl)c1)Cc1ccccc1 [Compound 3.4e, N-(3-Chlorobenzyl)-3-(benzylmethylamino)propanamide]
- Ratio σ2/σ1 (σ1 receptors [1]): 317
- Ki (σ2 receptors): 200 nM
- Ki (σ1 receptors [2]): 0.63 nM

SMILES: CN(CCC(=O)NCc1ccc(Cl)cc1)Cc1ccccc1 [Compound 3.4a, N-(4-chlorobenzyl)-3-(benzylmethylamino)propanamide]
- Ratio σ2/σ1 (σ1 receptors [1]): 241
- Ki (σ2 receptors): 410 nM
- Ki (σ1 receptors [2]): 1.7 nM

SMILES: CN(CCCNC(=O)c1cccc(Cl)c1)Cc1ccccc1 [Compound 3.1.8, N-[3-(benzylmethylamino)propyl]-3-chlorobenzamide]
- Ratio σ2/σ1 (σ1 receptors [1]): 34
- Ki (σ2 receptors; [5]): 340 nM
- Ki (σ1 receptors [2]): 10 nM

SMILES: CN(CCC(=O)NCc1ccc([N+](=O)[O-])cc1)Cc1ccccc1 [Compound 3.4b, N-(4-Nitrobenzyl)-3-(benzylmethylamino)propanamide]
- Ki (σ2 receptors): 6500 nM
- Ki (σ1 receptors [2]): 1.3 to 3.6 nM and 2.3 nM

SMILES: CN(CCCNC(=O)c1ccc(Cl)cc1Cl)Cc1ccccc1 [Compound 3.1.24, N-[3-(benzylmethylamino)propyl]-2,4-dichlorobenzamide]
- Ratio σ2/σ1 (σ1 receptors [1]): 238
- Ki (σ2 receptors; [5]): 310 nM
- Ki (σ1 receptors [2]): 1.3 to 3.6 nM and 1.3 nM

SMILES: CN(CCCNC(=O)c1ccc(F)cc1)Cc1ccccc1 [Compound 3.1.6, N-[3-(benzylmethylamino)propyl]-4-fluorobenzamide]
- Ratio σ2/σ1 (σ1 receptors [1]): 24
- Ki (σ2 receptors; [5]): 470 nM
- Ki (σ1 receptors [2]): 20 nM
